Measurements published in BindingDB's records for doi:10.1016/j.bioorg.2017.01.016 (CSIR-Indian Institute of Chemical Biology, 2017).
Where a chain is given by its changes, count along the chain named.

Tests used:
[1] = biological target: T1, Seed linoleate 13S-lipoxygenase-1 (Glycine max, UniProt P08170); experiment: In Vitro Soybean Lipoxygenase (SLO) Inhibition Assay; conditions: pH 8
T1 sequence (P08170 whole entry): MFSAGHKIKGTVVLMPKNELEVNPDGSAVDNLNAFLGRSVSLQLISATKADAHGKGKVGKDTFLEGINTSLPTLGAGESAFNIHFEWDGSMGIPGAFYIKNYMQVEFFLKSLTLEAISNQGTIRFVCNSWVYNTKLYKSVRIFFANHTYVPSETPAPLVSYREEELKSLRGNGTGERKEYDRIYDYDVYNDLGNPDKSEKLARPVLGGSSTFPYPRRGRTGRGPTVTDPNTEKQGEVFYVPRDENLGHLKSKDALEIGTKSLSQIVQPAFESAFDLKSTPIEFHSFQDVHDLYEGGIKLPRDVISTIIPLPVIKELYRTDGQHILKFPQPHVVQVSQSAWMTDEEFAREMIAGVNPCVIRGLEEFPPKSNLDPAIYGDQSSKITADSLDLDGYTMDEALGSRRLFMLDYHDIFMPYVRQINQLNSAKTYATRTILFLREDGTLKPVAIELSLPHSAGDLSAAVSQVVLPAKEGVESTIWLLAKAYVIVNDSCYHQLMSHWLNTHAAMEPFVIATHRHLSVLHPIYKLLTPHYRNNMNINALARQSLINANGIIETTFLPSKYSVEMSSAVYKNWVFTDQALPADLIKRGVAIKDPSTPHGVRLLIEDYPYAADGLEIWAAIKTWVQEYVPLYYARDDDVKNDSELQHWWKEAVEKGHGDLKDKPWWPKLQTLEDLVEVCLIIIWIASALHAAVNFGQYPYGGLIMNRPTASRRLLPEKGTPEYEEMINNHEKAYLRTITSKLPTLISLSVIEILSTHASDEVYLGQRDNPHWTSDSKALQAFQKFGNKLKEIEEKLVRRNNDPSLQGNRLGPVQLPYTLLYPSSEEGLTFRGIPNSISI
From the text: Following are the compositions of the blank, control and sample.

Lipoxygenase = biological target: T2, Lipoxygenase (Soybean, UniProt B3TDK4); experiment: Molecular Docking
T2 sequence (B3TDK4 whole entry): T1 sequence (P08170 whole entry) with S160E
Experimental: The crystal structure of soybean lipoxygenase-1 (PDB code: 3PZW), was used in our docking experiments. The 3D structure of 3PZW was reported by Chruszcz et al. [Chruszcz et al., Biophys. J., 95(1):1-9] using X-ray diffraction technique with a resolution of […] . The docking of ligands to the catalytic site of soybean lipoxygenase was performed using AutoDock 4.0 software (http://autodock.scripps.edu/).

| IC50 [1] | Ki (Lipoxygenase) | Compound |
| --- | --- | --- |
| 22.6 µM | 0.246 µM | CCOC(=O)c1c(C)oc(-c2ccc(C)cc2)c1CC(=O)c1ccc(C)cc1 [2-Methyl-4-(2-oxo-2-p-tolyl-ethyl)-5-p-tolyl-furan-3-carboxylic acid ethyl ester (3d)] |
| 287 µM | 0.868 µM | CCOC(=O)c1c(C)oc(-c2ccccc2)c1CC(=O)c1ccccc1 [2-Methyl-4-(2-oxo-2-phenyl-ethyl)-5-phenyl-furan-3-carboxylic acid ethyl ester (3b)] |
| 78.5 µM | 0.662 µM | COC(=O)c1c(C)oc(-c2ccccc2)c1CC(=O)c1ccccc1 [2-Methyl-4-(2-oxo-2-phenyl-ethyl)-5-phenyl-furan-3-carboxylic acid methyl ester (3a)] |
| 47.5 µM | 0.357 µM | COC(=O)c1c(C)oc(-c2ccc(C)c(Cl)c2)c1CC(=O)c1ccc(C)c(Cl)c1 [5-(3-Chloro-4-methyl-phenyl)-4-[2-(3-chloro-4-methyl-phenyl)-2-oxo-ethyl)-2-methyl-furan-3-carboxylic acid methyl ester (3i)] |
| 21.2 µM | 0.141 µM | CCOC(=O)c1c(C)oc(-c2ccc(Br)cc2)c1CC(=O)c1ccc(Br)cc1 [5-(4-Bromo-phenyl)-4[2-(4-bromo-phenyl)-2-oxo-ethyl]-2-methyl-furan-3-carboxylic acid ethyl ester (3f)] |
| 12.8 µM | 0.0709 µM | COC(=O)c1c(C)oc(-c2ccc(Br)cc2)c1CC(=O)c1ccc(Br)cc1 [5-(4-Bromo-phenyl)-4[2-(4-bromo-phenyl)-2-oxo-ethyl]-2-methyl-furan-3-carboxylic acid methyl ester (3e)] |
| 32 µM | 0.345 µM | CCOC(=O)c1c(C)oc(-c2ccc(Cl)cc2)c1CC(=O)c1ccc(Cl)cc1 [5-(4-Chloro-phenyl)-4[2-(4-chloro-phenyl)-2-oxo-ethyl]-2-methyl-furan-3-carboxylic acid ethyl ester (3h)] |
| 32.5 µM | 0.313 µM | COC(=O)c1c(C)oc(-c2ccc(Cl)cc2)c1CC(=O)c1ccc(Cl)cc1 [5-(4-Chloro-phenyl)-4[2-(4-chloro-phenyl)-2-oxo-ethyl]-2-methyl-furan-3-carboxylic acid methyl ester (3g)] |
| – | 0.232 µM | CC(Cc1ccc(O)c(O)c1)C(C)Cc1ccc(O)c(O)c1 (centres undefined) [LOX inhibitor, N/A] |
| 22.1 µM | 0.178 µM | COC(=O)c1c(C)oc(-c2ccc(C)cc2)c1CC(=O)c1ccc(C)cc1 [Methyl 2-methyl-5-(4-methylphenyl)-4-[2-(4-methylphenyl)-2-oxoethyl]furan-3-carboxylate (3c)] |
